Data set [1] is described as follows: logP by HPLC on reversed-phase columns (C 18), method [a], acidic range pH 2.3. Type of data set: physicochemical.
Data set [2] is described as follows: logP by LC-MS, method [b], acidic range pH 2.7. The following applies: pH 2.7. It counts as physicochemical.

We go through 75 compounds from patent publication US20110105472A1, “Diaminopyrimidines as crop protection agents” (Bayer CropScience AG, priority 2008, published 2011).

Structures are written as SMILES.

Take `Cl.Clc1cccc(Nc2ncc(Cl)c(NC3CCC3)n2)c1` [Compound 2-1]: in data set [1] (pH 2.3), the log p was 3.09^[a].
Still for that read-out and setting: the same measure for `Cl.Clc1cnc(Nc2ccccc2)nc1NC1CCC1` [Compound 2-2]: 1.97^[a]; for `COc1cc(Nc2ncc(Cl)c(NC3CCC3)n2)cc(OC)c1.Cl` [Compound 2-3]: 2.23^[a]; for `CC(=O)c1cccc(Nc2ncc(Cl)c(NC3CCC3)n2)c1.Cl` [Compound 2-4]: 2.04^[a].
On the same count and under the same terms, the result for `CC(C)c1ccc(Nc2ncc(Cl)c(NC3CCC3)n2)cc1.Cl` [Compound 2-5] reads 2.74^[a].
Regarding `CC(C)Oc1ccc(Nc2ncc(Cl)c(NC3CCC3)n2)cc1.Cl` [Compound 2-6], the log p in data set [1] (pH 2.3) is 2.21^[a].
Still for that read-out and setting: the result for `CN(C)S(=O)(=O)c1ccc(Nc2ncc(Cl)c(NC3CCC3)n2)cc1.Cl` [Compound 2-7] reads 2.58^[a].
On the same count and under the same terms, the same measure for `Cc1ccc(S(=O)(=O)O)cc1.Cc1nc(Nc2ccccc2)nc(NC2CCC2)c1Cl` [Compound 2-8]: 1.95^[a].
Regarding `NS(=O)(=O)c1cccc(Nc2ncc(Cl)c(NC3CCC3)n2)c1` [Compound 23], the log p in data set [1] (method [a], HPLC on reversed-phase C 18, acidic range pH 2.3) is 1.52[a]. For the same compound, the “logP (pH2.3)” value in data set [1] (pH 2.3, values given in the preparation examples) stood at 1.52.
For orientation: chromatographic logP means a lipophilicity value derived from retention on a column. With `CCCOc1cccc(Nc2ncc(Br)c(NC3CCC3)n2)c1` [Compound 30, 5-Bromo-N^4-cyclobutyl-N^2-(3-propoxyphenyl)pyrimidine-2,4-diamine], the chromatographic logP in data set [1] (pH 2.3) and in data set [2] was 3.27 each time.
`O=C1CCCN1c1cc(Nc2ncc(Cl)c(NC3CCC3)n2)ccc1F` [Compound 212]: the log p in data set [1] (pH 2.3) is 1.75[a].
Same read-out and setting: the same measure for `O=C1CCCCCN1c1cccc(Nc2ncc(Br)c(NC3CCC3)n2)c1` [Compound 215]: 2.08[a]; for `O=C1CCCCCN1c1cccc(Nc2ncc(Cl)c(NC3CCC3)n2)c1` [Compound 216]: 1.96[a]; for `O=C1CCCCN1c1cccc(Nc2ncc(Br)c(NC3CCC3)n2)c1` [Compound 217]: 1.77[a].
Same read-out and setting: the same measure for `Ic1cnc(Nc2ccccc2)nc1NC1CCC1` [Compound 236]: 2.19[a].
For `Clc1ncc(Cl)c(NC2CCC2)n1` [Compound V-1, 2,5-Dichloro-N-cyclobutylpyrimidine-4-amine], the chromatographic logP in data set [1] (pH 2.3) is 2.62.
The same measure, in the same setting: the result for `Clc1ncc(Br)c(NC2CCC2)n1` [Compound V-2, 5-Bromo-2-chloro-N-cyclobutylpyrimidine-4-amine] reads 2.87.
Take `Clc1ncc(I)c(NC2CCC2)n1` [Compound V-3, 2-Chloro-N-cyclobutyl-5-iodopyrimidine-4-amine]: in data set [1] (pH 2.3), the chromatographic logP was 3.08.
The same measure, in the same setting: the same measure for `FC(F)(F)c1cnc(Cl)nc1NC1CCC1` [Compound V-4, 2-Chloro-N-cyclobutyl-5-trifluoromethylpyrimidine-4-amine]: 3.2.
On to `O=C1Cc2cc(Nc3ncc(Cl)c(NC4CCC4)n3)ccc2N1` [compound 7], for which the log p in data set [2] is 1.33[b].
On the same count and under the same terms, the result for `O=c1[nH]c2ccc(Nc3ncc(Cl)c(NC4CCC4)n3)cc2o1` [compound 8] reads 1.55[b]; that for `O=C1CCc2cc(Nc3ncc(Br)c(NC4CCC4)n3)ccc21` [compound 9], 2.59[b].
The same measure, in the same setting: the result for `O=c1oc2ccc(Nc3ncc(Br)c(NC4CCC4)n3)cc2s1` [compound 11] reads 2.63[b].
Still for that read-out and setting: the result for `CN1C(=O)COc2ccc(Nc3ncc(Br)c(NC4CCC4)n3)cc21` [compound 14] reads 1.85[b]; that for `O=S1(=O)Cc2ccc(Nc3ncc(Br)c(NC4CCC4)n3)cc2C1` [compound 20], 1.78[b]; that for `O=C1NC(=O)c2cc(Nc3ncc(Br)c(NC4CCC4)n3)ccc21` [compound 22], 2.25[b].
As for `NS(=O)(=O)c1cc(Nc2ncc(Cl)c(NC3CCC3)n2)cc(C(F)(F)F)c1` [compound 24], the log p in data set [1] (pH 2.3) was 2.7[a].
On the same count and under the same terms, the same measure for `CNS(=O)(=O)c1ccc(Nc2ncc(Cl)c(NC3CCC3)n2)cc1` [compound 25]: 2.01[a]; for `CCCCNS(=O)(=O)c1ccc(Nc2ncc(Cl)c(NC3CCC3)n2)cc1` [compound 26]: 2.91[a].
Still for that read-out and setting: the same measure for `NS(=O)(=O)c1ccc(Nc2ncc(Cl)c(NC3CCC3)n2)cc1` [compound 27]: 1.62[a]; for `CC(C)(C)OC(=O)N1CCN(c2ccc(Nc3ncc(Cl)c(NC4CCC4)n3)cc2)CC1` [compound 28]: 2.73[a].
With `N#Cc1cnc(Nc2ccccc2)nc1NC1CCC1` [compound 29], in data set [2], the log p is 2.92[b].
On the same count and under the same terms, the same measure for `O=C1CCC(=O)N1c1ccc(Nc2ncc(Br)c(NC3CCC3)n2)cc1` [compound 34]: 1.62[b]; for `Oc1ccc(Nc2ncc(Br)c(NC3CCC3)n2)cc1` [compound 37]: 1.27[b].
On the same count and under the same terms, the same measure for `O=C(Nc1ccc(Nc2ncc(Br)c(NC3CCC3)n2)cc1)OCCCl` [compound 43]: 2.06[b]; for `Brc1ccc(Nc2ncc(Br)c(NC3CCC3)n2)cc1` [compound 67]: 3.18[b].
The same measure, in the same setting: the same measure for `Clc1ccc(Nc2ncc(Br)c(NC3CCC3)n2)cc1` [compound 69]: 2.99[b]; for `N#Cc1cccc(Nc2ncc(Cl)c(NC3CCC3)n2)c1` [compound 107]: 2.46[b]; for `FC(F)(F)Oc1cccc(Nc2ncc(Cl)c(NC3CCC3)n2)c1` [compound 112]: 3.59[b].
For `CS(=O)(=O)c1ccc(Nc2ncc(Cl)c(NC3CCC3)n2)cc1` [compound 113], the log p in data set [2] was 2.09[b].
Still for that read-out and setting: the result for `CN(C)S(=O)(=O)c1ccc(Nc2ncc(Cl)c(NC3CCC3)n2)cc1` [compound 114] reads 2.53[b]; that for `CSc1ccc(Nc2ncc(Cl)c(NC3CCC3)n2)cc1Cl` [compound 115], 3.22[b].
Turning to `O=C(Nc1ccc(Nc2ncc(Cl)c(NC3CCC3)n2)cc1)C(F)(F)F` [compound 121], the log p in data set [2] is 2.09[b].
Regarding `CC1(C(=O)Nc2ccc(Nc3ncc(Cl)c(NC4CCC4)n3)cc2)CC1` [compound 122], the log p in data set [2] is 1.87[b].
Same read-out and setting: the same measure for `C=C(C)C(=O)Nc1cccc(Nc2ncc(Cl)c(NC3CCC3)n2)c1` [compound 124]: 1.8[b].
Still for that read-out and setting: the same measure for `CNC(=O)c1cccc(Nc2ncc(Cl)c(NC3CCC3)n2)c1` [compound 127]: 1.5[b]; for `O=S(=O)(c1cccc(Nc2ncc(Cl)c(NC3CCC3)n2)c1)N1CCCCC1` [compound 130]: 2.3[b].
On the same count and under the same terms, the same measure for `CC(=O)c1ccc(Nc2ncc(Cl)c(NC3CCC3)n2)cc1` [compound 131]: 2.26[b]; for `O=C1OCCN1c1ccc(Nc2ncc(Cl)c(NC3CCC3)n2)cc1` [compound 132]: 1.59[b].
For `O=C1CCCN1c1ccc(Nc2ncc(Cl)c(NC3CCC3)n2)cc1` [compound 133], the log p in data set [2] is 1.66[b].
Still for that read-out and setting: the same measure for `O=C1NC(=O)C(c2ccc(Nc3ncc(Cl)c(NC4CCC4)n3)cc2)N1` (centres unmarked) [compound 134]: 1.33[b]; for `CCOC(=O)Nc1ccc(Nc2ncc(Cl)c(NC3CCC3)n2)cc1` [compound 136]: 1.8[b]; for `Fc1cc(F)cc(Nc2ncc(Br)c(NC3CCC3)n2)c1` [compound 144]: 3.98[b].
Same read-out and setting: the same measure for `CC(=O)c1ccc(Nc2ncc(Br)c(NC3CCC3)n2)cc1` [compound 145]: 2.65[b].
Regarding `CCOC(=O)Nc1ccc(Nc2ncc(Br)c(NC3CCC3)n2)cc1O` [compound 151], the log p in data set [2] was 1.8[b].
Still for that read-out and setting: the same measure for `COC(=O)c1ccc(Nc2ncc(Br)c(NC3CCC3)n2)cc1` [compound 158]: 2.84[b].
Still for that read-out and setting: the same measure for `FC(F)C(F)(F)Oc1ccc(Nc2ncc(Br)c(NC3CCC3)n2)cc1` [compound 159]: 3.1[b]; for `CCCCC(=O)Oc1ccc(Nc2ncc(Br)c(NC3CCC3)n2)cc1` [compound 161]: 4.32[b]; for `CC(=O)N(c1ccc(Nc2ncc(Br)c(NC3CCC3)n2)cc1)C1CCCCC1` [compound 163]: 2.7[b].
Still for that read-out and setting: the result for `O=C(Nc1cccc(Nc2ncc(Br)c(NC3CCC3)n2)c1)c1ccccc1` [compound 168] reads 2.46[b].
Take `CC(C)C(=O)Nc1ccc(Nc2ncc(Br)c(NC3CCC3)n2)cc1` [compound 169]: the log p in data set [2] was 1.83[b].
On the same count and under the same terms, the result for `FC(F)C(F)(F)Oc1cccc(Nc2ncc(Br)c(NC3CCC3)n2)c1` [compound 170] reads 3.37[b]; that for `FC(F)(F)Oc1cccc(Nc2ncc(Br)c(NC3CCC3)n2)c1` [compound 182], 4.15[b]; that for `FC(F)(F)Oc1ccc(Nc2ncc(Br)c(NC3CCC3)n2)cc1` [compound 183], 3.73[b].
Still for that read-out and setting: the same measure for `CC1(C(=O)Nc2ccc(Nc3ncc(Br)c(NC4CCC4)n3)cc2)CC1` [compound 189]: 2[b]; for `O=S(=O)(c1ccc(Nc2ncc(Br)c(NC3CCC3)n2)cc1)C(F)(F)F` [compound 193]: 4.32[b].
Still for that read-out and setting: the same measure for `CCC(=O)c1cc(Nc2ncc(Br)c(NC3CCC3)n2)ccc1O` [compound 194]: 2.39[b]; for `Cc1cc(O)ccc1Nc1ncc(Br)c(NC2CCC2)n1` [compound 198]: 1.47[b]; for `O=C(Nc1cccc(Nc2ncc(Br)c(NC3CCC3)n2)c1)Oc1ccccc1` [compound 199]: 2.51[b].
Consider `Clc1cnc(Nc2ccc(NC3CC3)cc2)nc1NC1CCC1` [compound 207], for which the log p in data set [2] was 0.71[b].
The same measure, in the same setting: the same measure for `CNc1ccc(Nc2ncc(Br)c(NC3CCC3)n2)cc1` [compound 213]: 1.18[b]; for `Clc1cnc(Nc2ccc(I)cc2)nc1NC1CCC1` [compound 230]: 3.49[b].
As to `CC1(Nc2nc(Nc3ccccc3)ncc2C(F)(F)F)CCC1` [compound 232], the log p in data set [2] was 3.36[b].
In the case of `CN(c1nc(Nc2ccccc2)ncc1Cl)C1CCC1` [compound 245], in data set [1] (pH 2.3), the log p was 3.32[a].
Consider `CC(C)(C)c1cccc(Nc2ncc(Cl)c(NC3CCC3)n2)c1` [compound 255], for which, in data set [2], the log p was 3.26[b].
